Assay results published in ChEMBL document CHEMBL5053512, “Discovery and Preclinical Pharmacology of an Oral Bromodomain and Extra-Terminal (BET) Inhibitor Using Scaffold-Hopping and Structure-Guided Drug Design” (J Med Chem, 2021).

Columns and labels:
[1] = AUC in human LG0787F cells xenografted in NSG mouse at 0.25 mg/kg/day, po bid; type: ADME, organism-based; parameters: dose 0.25 mg/kg/day, route po; conditions: in vivo
[2] = Anticancer activity against human JJN3R cells; type: functional, cell-based; conditions: JJN-3R
A549 = assay: Anticancer activity against human A549 cells; type: functional, cell-based
[3] = Elimination half life in dog at 0.1 mg/kg, iv; type: ADME, organism-based, Canis lupus familiaris; conditions: in vivo, read-out: beta t1/2 (converted)
[4] = Oral bioavailability in monkey at 5 mg/kg; type: ADME, organism-based, Macaca mulatta; conditions: rhesus monkey, in vivo
[5] = molecular target: Bromodomain-containing protein 4 (Homo sapiens, UniProt O60885); assay: Inhibition of human BRD4 (1 to 477 residues) measured after 60 mins by TR-FRET assay
SW900 = assay: Anticancer activity against human SW900 cells; type: functional, cell-based
[6] = Oral bioavailability in rat at 5 mg/kg; type: ADME, organism-based; conditions: in vivo
[7] = Volume of distribution at steady state in dog at 0.1 mg/kg, iv; type: ADME, organism-based, Canis lupus familiaris; conditions: in vivo, read-out: Vdss
Cytochrome P450 3A4 = Cytochrome P450 3A4 (Homo sapiens, UniProt P08684); assay: Inhibition of CYP3A4 (unknown origin); type: ADME
Sequence of Cytochrome P450 3A4 (P08684 whole entry): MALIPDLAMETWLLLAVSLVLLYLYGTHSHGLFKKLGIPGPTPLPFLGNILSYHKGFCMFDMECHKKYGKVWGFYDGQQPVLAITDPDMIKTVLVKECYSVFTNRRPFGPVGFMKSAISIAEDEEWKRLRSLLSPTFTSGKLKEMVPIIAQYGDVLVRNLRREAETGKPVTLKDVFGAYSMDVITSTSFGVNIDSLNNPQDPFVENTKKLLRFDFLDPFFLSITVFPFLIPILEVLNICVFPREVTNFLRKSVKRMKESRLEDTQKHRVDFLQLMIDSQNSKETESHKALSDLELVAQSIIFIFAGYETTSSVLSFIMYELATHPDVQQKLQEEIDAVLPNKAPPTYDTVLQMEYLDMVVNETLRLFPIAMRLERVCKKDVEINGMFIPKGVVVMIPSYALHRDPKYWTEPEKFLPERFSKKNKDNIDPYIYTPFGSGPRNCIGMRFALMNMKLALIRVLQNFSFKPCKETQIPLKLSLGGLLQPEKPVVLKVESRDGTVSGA

NCI-H2228 = assay: Anticancer activity against human […] cells; type: functional, cell-based
[8] = Drug concentration at steady state in human LG0787F cells xenografted in NSG mouse at 0.5 mg/kg/day infused continuously over 6 days using Alzet pump; type: ADME, organism-based; conditions: in vivo, 144 h, time 6 day
[9] = Cmax in human LG0787F cells xenografted in NSG mouse at 1 mg/kg/day, po bid; type: ADME, organism-based; parameters: dose 1 mg/kg/day, route po; conditions: in vivo
[10] = Antitumour activity against patient-derived human PAT140 cells xenografted in mouse model at 1.6 mg/kg, po bid, 5 days on and 2 days off for 2 weeks; type: functional; conditions: PAT140, 120 h, time 5 day, read-out: TGI
NCI-H1792 = assay: Anticancer activity against human NCI-H1792 cells; type: functional, cell-based
Cytochrome P450 2C9 = Cytochrome P450 2C9 (Homo sapiens, UniProt P11712); assay: Inhibition of CYP2C9 (unknown origin); type: ADME
Sequence of Cytochrome P450 2C9 (P11712 whole entry): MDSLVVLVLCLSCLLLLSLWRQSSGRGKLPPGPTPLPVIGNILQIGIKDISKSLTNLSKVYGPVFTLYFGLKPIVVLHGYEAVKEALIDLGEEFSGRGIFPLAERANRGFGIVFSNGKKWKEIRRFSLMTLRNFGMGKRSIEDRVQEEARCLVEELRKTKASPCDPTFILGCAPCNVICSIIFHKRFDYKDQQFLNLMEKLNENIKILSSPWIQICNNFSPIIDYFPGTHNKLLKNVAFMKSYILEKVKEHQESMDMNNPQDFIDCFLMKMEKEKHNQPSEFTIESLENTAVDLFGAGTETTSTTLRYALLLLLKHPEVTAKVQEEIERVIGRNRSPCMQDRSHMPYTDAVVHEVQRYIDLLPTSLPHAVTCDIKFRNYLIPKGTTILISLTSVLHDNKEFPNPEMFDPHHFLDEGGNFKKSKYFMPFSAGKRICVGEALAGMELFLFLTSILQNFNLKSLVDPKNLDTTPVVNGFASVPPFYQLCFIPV

[11] = Anticancer activity against human HCC33 cells; type: functional, cell-based
[12] = Anticancer activity against human HCC1588 cells; type: functional, cell-based
[13] = Inhibition of c-MYC expression in human JJN3R cells measured after 4 hrs; type: functional, cell-based; conditions: JJN-3R
NCI-H2030 = assay: Anticancer activity against human NCI-H2030 cells; type: functional, cell-based
NCI-H23 = assay: Anticancer activity against human NCI-H23 cells; type: functional, cell-based
[14] = Oral bioavailability in dog at 5 mg/kg; type: ADME, organism-based, Canis lupus familiaris; conditions: in vivo
[15] = Permeability coefficient of the compound by PAMPA; type: ADME; conditions: read-out: permeability
[16] = Antitumour activity against human LG0787F cells xenografted in NSG mouse assessed as tumour growth inhibition at 0.5 mg/kg/day infused continuously over 6 days using Alzet pump; type: functional; conditions: 144 h, time 6 day, read-out: TGI
[17] = Antitumour activity against patient-derived human PAT138 cells xenografted in mouse model at 1.6 mg/kg, po bid, 5 days on and 2 days off for 2 weeks; type: functional; conditions: PAT138, 120 h, time 5 day, read-out: TGI
[18] = Permeability coefficient across apical to basolateral side in human Caco-2 cells; type: ADME, cell-based; conditions: read-out: permeability
NCI-H1048 = assay: Anticancer activity against human NCI-H1048 cells; type: functional, cell-based
[19] = Antitumour activity against patient-derived human PAT014 cells xenografted in mouse model at 1.6 mg/kg, po bid, 5 days on and 2 days off for 2 weeks; type: functional; conditions: PAT014, 120 h, time 5 day, read-out: TGI
Cytochrome P450 1A2 = Cytochrome P450 1A2 (Homo sapiens, UniProt P05177); assay: Inhibition of CYP1A2 (unknown origin); type: ADME
Sequence of Cytochrome P450 1A2 (P05177 whole entry): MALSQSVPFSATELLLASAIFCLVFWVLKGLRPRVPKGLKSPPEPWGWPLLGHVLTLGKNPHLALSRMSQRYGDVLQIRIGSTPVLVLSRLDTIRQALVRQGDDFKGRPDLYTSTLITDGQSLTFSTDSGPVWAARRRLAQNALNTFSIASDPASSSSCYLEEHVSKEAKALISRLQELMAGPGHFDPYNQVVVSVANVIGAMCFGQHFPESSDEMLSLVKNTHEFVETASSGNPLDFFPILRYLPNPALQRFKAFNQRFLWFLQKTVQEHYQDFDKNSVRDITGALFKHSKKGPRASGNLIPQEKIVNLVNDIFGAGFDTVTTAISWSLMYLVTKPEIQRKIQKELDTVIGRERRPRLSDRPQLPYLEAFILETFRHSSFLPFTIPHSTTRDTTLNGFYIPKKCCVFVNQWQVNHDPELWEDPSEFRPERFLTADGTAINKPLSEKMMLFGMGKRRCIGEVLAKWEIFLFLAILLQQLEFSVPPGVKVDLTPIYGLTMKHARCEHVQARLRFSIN

NCI-H1703 = assay: Anticancer activity against human NCI-H1703 cells; type: functional, cell-based
[20] = molecular target: Histone acetyltransferase p300 (Homo sapiens) (UniProt Q09472)
Sequence of Histone acetyltransferase p300 (Homo sapiens) (Q09472 whole entry): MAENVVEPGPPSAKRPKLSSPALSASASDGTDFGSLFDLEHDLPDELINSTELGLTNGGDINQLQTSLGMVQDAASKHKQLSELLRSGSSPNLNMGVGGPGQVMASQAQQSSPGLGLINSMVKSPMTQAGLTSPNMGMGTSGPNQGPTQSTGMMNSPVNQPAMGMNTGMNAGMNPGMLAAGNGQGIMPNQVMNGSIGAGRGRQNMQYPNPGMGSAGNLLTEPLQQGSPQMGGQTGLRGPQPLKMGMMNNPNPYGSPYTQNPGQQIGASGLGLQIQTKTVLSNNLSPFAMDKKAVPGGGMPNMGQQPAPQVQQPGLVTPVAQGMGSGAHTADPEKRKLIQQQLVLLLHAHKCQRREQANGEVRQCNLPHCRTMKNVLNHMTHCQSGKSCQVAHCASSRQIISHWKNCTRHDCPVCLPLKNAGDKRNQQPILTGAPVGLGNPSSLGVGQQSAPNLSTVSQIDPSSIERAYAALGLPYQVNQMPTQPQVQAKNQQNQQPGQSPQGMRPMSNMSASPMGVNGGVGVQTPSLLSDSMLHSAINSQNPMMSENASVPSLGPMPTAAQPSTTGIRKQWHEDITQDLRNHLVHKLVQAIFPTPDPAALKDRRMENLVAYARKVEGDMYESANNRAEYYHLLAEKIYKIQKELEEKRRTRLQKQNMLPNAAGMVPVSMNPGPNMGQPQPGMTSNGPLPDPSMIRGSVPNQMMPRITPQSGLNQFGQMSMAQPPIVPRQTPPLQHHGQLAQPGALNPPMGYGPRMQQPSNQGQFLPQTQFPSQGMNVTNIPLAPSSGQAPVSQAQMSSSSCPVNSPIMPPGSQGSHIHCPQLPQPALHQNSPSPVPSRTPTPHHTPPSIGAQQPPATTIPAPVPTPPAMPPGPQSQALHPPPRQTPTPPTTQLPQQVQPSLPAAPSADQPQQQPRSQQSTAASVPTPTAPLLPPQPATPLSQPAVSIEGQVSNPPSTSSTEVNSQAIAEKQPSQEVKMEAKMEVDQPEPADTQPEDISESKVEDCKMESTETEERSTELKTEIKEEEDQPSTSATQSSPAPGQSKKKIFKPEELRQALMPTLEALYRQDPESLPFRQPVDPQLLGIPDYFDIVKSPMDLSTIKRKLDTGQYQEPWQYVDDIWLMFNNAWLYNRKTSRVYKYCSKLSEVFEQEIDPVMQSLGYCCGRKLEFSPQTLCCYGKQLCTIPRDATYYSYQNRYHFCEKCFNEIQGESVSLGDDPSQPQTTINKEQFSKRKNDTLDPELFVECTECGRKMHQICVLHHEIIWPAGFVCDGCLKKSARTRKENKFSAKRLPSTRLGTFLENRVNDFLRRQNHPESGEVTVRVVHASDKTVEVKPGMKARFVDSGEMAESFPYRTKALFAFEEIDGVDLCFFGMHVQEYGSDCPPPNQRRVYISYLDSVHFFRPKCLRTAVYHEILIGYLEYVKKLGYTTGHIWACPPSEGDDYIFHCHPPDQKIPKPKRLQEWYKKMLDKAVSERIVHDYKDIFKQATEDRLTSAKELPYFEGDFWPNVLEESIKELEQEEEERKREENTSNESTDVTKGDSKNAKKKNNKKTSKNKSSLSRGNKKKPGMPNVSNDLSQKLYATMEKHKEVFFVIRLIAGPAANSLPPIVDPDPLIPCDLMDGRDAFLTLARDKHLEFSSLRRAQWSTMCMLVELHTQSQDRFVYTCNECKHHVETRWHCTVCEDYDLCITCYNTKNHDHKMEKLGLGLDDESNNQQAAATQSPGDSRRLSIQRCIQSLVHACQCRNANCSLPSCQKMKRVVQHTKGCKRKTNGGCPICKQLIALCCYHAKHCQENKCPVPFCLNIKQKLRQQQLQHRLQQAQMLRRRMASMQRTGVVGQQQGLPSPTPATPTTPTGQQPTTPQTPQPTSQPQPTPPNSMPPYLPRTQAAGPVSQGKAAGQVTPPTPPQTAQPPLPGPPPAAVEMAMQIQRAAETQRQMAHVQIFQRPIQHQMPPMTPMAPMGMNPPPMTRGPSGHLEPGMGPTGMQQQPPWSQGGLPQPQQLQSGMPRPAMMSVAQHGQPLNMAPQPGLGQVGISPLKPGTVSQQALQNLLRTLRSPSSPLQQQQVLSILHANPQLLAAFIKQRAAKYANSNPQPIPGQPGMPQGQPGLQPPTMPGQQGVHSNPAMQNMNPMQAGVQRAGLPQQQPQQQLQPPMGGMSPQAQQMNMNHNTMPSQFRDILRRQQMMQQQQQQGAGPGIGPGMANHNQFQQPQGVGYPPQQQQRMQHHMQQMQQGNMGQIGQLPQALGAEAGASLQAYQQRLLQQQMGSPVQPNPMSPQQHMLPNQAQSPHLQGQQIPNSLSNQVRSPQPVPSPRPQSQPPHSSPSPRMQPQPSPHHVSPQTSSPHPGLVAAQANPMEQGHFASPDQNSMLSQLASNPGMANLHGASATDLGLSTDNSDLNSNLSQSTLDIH
Description: Binding affinity to EP300 (unknown origin) assessed as change in melting temperature of protein

NCI-H520 = assay: Anticancer activity against human NCI-H520 cells; type: functional, cell-based
NCI-H2009 = assay: Anticancer activity against human NCI-H2009 cells; type: functional, cell-based
Cytochrome P450 2C19 = Cytochrome P450 2C19 (Homo sapiens, UniProt P33261); assay: Inhibition of CYP2C19 (unknown origin); type: ADME
Sequence of Cytochrome P450 2C19 (P33261 whole entry): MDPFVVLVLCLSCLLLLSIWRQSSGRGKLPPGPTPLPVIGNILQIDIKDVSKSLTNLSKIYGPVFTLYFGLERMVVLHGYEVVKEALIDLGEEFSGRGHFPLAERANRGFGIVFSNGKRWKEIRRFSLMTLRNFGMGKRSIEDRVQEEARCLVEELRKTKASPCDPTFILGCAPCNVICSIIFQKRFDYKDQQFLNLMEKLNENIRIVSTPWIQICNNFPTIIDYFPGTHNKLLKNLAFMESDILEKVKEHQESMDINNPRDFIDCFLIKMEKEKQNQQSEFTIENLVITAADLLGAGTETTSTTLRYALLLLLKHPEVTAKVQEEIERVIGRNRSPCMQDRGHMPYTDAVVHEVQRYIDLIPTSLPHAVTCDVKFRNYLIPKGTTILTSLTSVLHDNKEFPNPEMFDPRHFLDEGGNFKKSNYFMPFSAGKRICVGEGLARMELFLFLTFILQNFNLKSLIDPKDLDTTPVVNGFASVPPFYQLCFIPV

[21] = Metabolic stability in human liver microsomes assessed as parent compound remaining at 0.5 uM after 10 mins; type: ADME, Microsome; conditions: read-out: Stability
HCC44 = assay: Anticancer activity against human HCC44 cells; type: functional, cell-based
[22] = Volume of distribution at steady state in rat at 1 mg/kg, iv; type: ADME, organism-based; conditions: in vivo, read-out: Vdss
SK-LU-1 = assay: Anticancer activity against human SK-LU-1 cells; type: functional, cell-based
[23] = Elimination half life in monkey at 0.1 mg/kg, iv; type: ADME, organism-based, Macaca mulatta; conditions: rhesus monkey, in vivo, read-out: beta t1/2 (converted)
[24] = Permeability coefficient across basolateral to apical side in human Caco-2 cells; type: ADME, cell-based; conditions: read-out: permeability
[25] = Oral bioavailability in mouse at 5 mg/kg; type: ADME, organism-based; conditions: in vivo
[26] = Total plasma clearance in rat at 1 mg/kg, iv; type: ADME, organism-based
NCI-H1793 = assay: Anticancer activity against human NCI-H1793 cells; type: functional, cell-based
[27] = Antitumour activity against patient-derived human BR0851F cells xenografted in mouse model at 1.6 mg/kg, po bid, 5 days on and 2 days off for 2 weeks; type: functional; conditions: 120 h, time 5 day, read-out: TGI
[28] = AUC in human LG0787F cells xenografted in NSG mouse at 1 mg/kg/day, po bid; type: ADME, organism-based; parameters: dose 1 mg/kg/day, route po; conditions: in vivo
[29] = Antitumour activity against patient-derived human PAT149 cells xenografted in mouse model at 1.6 mg/kg, po bid, 5 days on and 2 days off for 2 weeks; type: functional; conditions: PAT149, 120 h, time 5 day, read-out: TGI
DMS-53 = assay: Anticancer activity against human DMS-53 cells; type: functional, cell-based
NCI-H647 = assay: Anticancer activity against human NCI-H647 cells; type: functional, cell-based
[30] = Drug concentration at steady state in human LG0787F cells xenografted in NSG mouse at 1 mg/kg/day infused continuously over 6 days using Alzet pump; type: ADME, organism-based; conditions: in vivo, 144 h, time 6 day
[31] = Antitumour activity against patient-derived human PAT136 cells xenografted in mouse model at 1.6 mg/kg, po bid, 5 days on and 2 days off for 2 weeks; type: functional; conditions: PAT136, 120 h, time 5 day, read-out: TGI
DMS-114 = assay: Anticancer activity against human DMS-114 cells; type: functional, cell-based
[32] = Antitumour activity against patient-derived human PAT121 cells xenografted in mouse model at 1.6 mg/kg, po bid, 5 days on and 2 days off for 2 weeks; type: functional; conditions: PAT121, 120 h, time 5 day, read-out: TGI
NCI-H146 = assay: Anticancer activity against human NCI-H146 cells; type: functional, cell-based
MOLM-13 = assay: Anticancer activity against human MOLM-13 cells; type: functional, cell-based
OCI-AML-3 = assay: Anticancer activity against human OCI-AML3 cells; type: functional, cell-based

AUC [1]: 0.3 µM·h
IC50 [2]: 0.0007 µM
IC50 (A549): > 0.5 µM
half-life [3]: 5.6 h
bioavailability [4]: 16%
IC50 [5]: 0.0011 µM
IC50 (SW900): > 0.5 µM
bioavailability [6]: 47%
Vd [7]: 5.3 L/kg
IC50 (Cytochrome P450 3A4): > 20 µM
IC50 (NCI-H2228): 0.166 µM
Css [8]: 10 nM
Cmax [9]: 40 nM
IC50 (NCI-H1792): > 0.5 µM
IC50 (Cytochrome P450 2C9): 11.8 µM
IC50 [11]: 0.00023 µM
IC50 [12]: > 0.5 µM
IC50 [13]: 0.0007 µM
IC50 (NCI-H2030): > 0.5 µM
IC50 (NCI-H23): 0.062 µM
bioavailability [14]: 59%
Papp [15]: 66.1 ×10⁻⁶ cm/s
Papp A→B [18]: 13.3 ×10⁻⁶ cm/s
IC50 (NCI-H1048): > 0.5 µM
IC50 (Cytochrome P450 1A2): > 20 µM
IC50 (NCI-H1703): > 0.5 µM
ΔTm [20]: 9.5 °C
IC50 (NCI-H520): > 0.5 µM
IC50 (NCI-H2009): > 0.5 µM
IC50 (Cytochrome P450 2C19): 5.6 µM
remaining at 10 min, 0.5 µM [21]: 82%
IC50 (HCC44): 0.0027 µM
Vd [22]: 4.3 L/kg
IC50 (SK-LU-1): 0.21 µM
half-life [23]: 2 h
Papp B→A [24]: 34.7 ×10⁻⁶ cm/s
bioavailability [25]: 100%
clearance [26]: 41 mL/min/kg
IC50 (NCI-H1793): > 0.5 µM
AUC [28]: 0.47 µM·h
IC50 (DMS-53): 0.00029 µM
IC50 (NCI-H647): 0.441 µM
Css [30]: 17 nM
IC50 (DMS-114): 0.00032 µM
IC50 (NCI-H146): 0.00041 µM
IC50 (MOLM-13): 0.0017 µM
IC50 (OCI-AML-3): 0.0007 µM
SMILES: Cc1nnn(C)c1-c1cnc2c3ccc(C(C)(C)O)cc3n([C@H](c3ccccc3)C3CCOCC3)c2c1 [EZOBRESIB]
inhibition in vivo at 1.6 mg/kg [10]: 59%
inhibition in vivo at 0.5 mg/kg/day [16]: 62%
inhibition in vivo at 1.6 mg/kg [17]: 75%
inhibition in vivo at 1.6 mg/kg [19]: 70%
inhibition in vivo at 1.6 mg/kg [27]: 49%
inhibition in vivo at 1.6 mg/kg [29]: 101%
inhibition in vivo at 1.6 mg/kg [31]: 92%
inhibition in vivo at 1.6 mg/kg [32]: 85%
